Measured values taken from PMC9939005 (Journal of medicinal chemistry, 2022).
Blank lines part the entries; values can stand above or below the molecule they belong to.

Legend:
JAK2 JH2 WT = JAK2 JH2 WT (Homo sapiens, UniProt O60674); assay type: binding
[1] = tested on: HEL cells (containing the JAK2 V617F mutant); test: STAT5 phosphorylation in HEL cells, Western blot; assay type: cell-based, Human; conditions: for concentration up to which no inhibition of STAT5 phosphorylation was observed: 11: 1-hour incubation
[2] = Parallel Artificial Membrane Permeation Assay; conditions: for PAMPA permeability, in words: PAMPA values close or equal to 0; for Papp at 18 h: pH 7.4
[3] = tested on: TF-1 cells starved of cytokine (WT JAK2); test: Stimulation of STAT5 phosphorylation in TF-1 cells starved of cytokine; assay type: cell-based, Human; conditions: 0.1, 0.5, and 2 μM
[4] = tested on: TF-1 cells (containing wild-type JAK2); test: STAT5 phosphorylation in TF-1 cells, Western blot; assay type: cell-based, Human; conditions: 1 hour

JAK2 JH2 WT, sequence (O60674 536-812): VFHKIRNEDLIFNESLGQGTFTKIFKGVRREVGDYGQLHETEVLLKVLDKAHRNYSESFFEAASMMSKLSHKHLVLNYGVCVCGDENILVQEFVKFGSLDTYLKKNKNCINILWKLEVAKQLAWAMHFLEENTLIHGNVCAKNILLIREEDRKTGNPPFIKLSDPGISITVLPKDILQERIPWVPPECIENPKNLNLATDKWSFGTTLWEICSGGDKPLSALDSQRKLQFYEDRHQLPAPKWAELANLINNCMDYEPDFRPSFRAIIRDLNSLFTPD

loss in binding affinity compared to 2 (JAK2 JH2 WT; JAK2 JH2): 3 fold
Compound: Nc1nc(Nc2ccc(S(N)(=O)=O)cc2)nn1C(=O)Nc1ccc(-c2cccc(C(=O)O)n2)cc1 [Compound 3, 6-(4-(5-amino-3-((4-sulfamoylphenyl)amino)-1H-1,2,4-triazole-1-carboxamido)phenyl)picolinic acid]

Compound: Nc1nc(Nc2ccc(S(N)(=O)=O)cc2)nn1C(=O)Nc1ccc(-c2ccc(OCc3ccccc3)c(C(=O)O)c2)cc1 [Compound 11, 4’-(5-amino-3-((4-sulfamoylphenyl)amino)-1H-1,2,4-triazole-1-carboxamido)-4-(benzyloxy)-[1,1’-biphenyl]-3-carboxylic acid]
concentration up to which no inhibition of STAT5 phosphorylation was observed ([1]; HEL cells, Western blot): > 40 µM

Compound: Nc1nc(Nc2ccc(S(N)(=O)=O)cc2)nn1C(=O)Nc1ccc(-c2cc(OCc3ccccc3)cc(C(=O)O)c2)cc1 [Compound 12, 4’-(5-amino-3-((4-sulfamoylphenyl)amino)-1H-1,2,4-triazole-1-carboxamido)-5-(benzyloxy)-[1,1’-biphenyl]-3-carboxylic acid]
weaker binder than 11 (JAK2 JH2 WT; WT JAK2 JH2): 2 fold
concentration up to which no inhibition of STAT5 phosphorylation was observed ([1]; HEL cells, Western blot): > 25 µM
increase in permeability compared to its isomer 11 ([2]; PAMPA): 3 fold

Compound: Nc1nc(Nc2ccc(S(N)(=O)=O)cc2)nn1C(=O)Nc1ccc(-c2cccc(C(=O)O)c2)cc1 [Compound 7, 4’-(5-amino-3-((4-sulfamoylphenyl)amino)-1H-1,2,4-triazole-1-carboxamido)-[1,1’-biphenyl]-3-carboxylic acid]
PAMPA permeability, in words [2]: essentially impermeable

Compound: CNC(=O)c1ccc(Nc2nc(N)n(C(=O)Nc3ccc(-c4ccc(OCc5ccccc5)c(C(=O)O)c4)cc3)n2)cc1 [Compound 13, 4’-(5-amino-3-((4-(methylcarbamoyl)phenyl)amino)-1H-1,2,4-triazole-1-carboxamido)-4-(benzyloxy)-[1,1’-biphenyl]-3-carboxylic acid]
stronger binding for WT JH2 than 2 (JAK2 JH2 WT): 10 fold
stimulation of STAT5 phosphorylation [3]: no stimulation of STAT5 phosphorylation was observed
inhibition of STAT-5 phosphorylation ([1]; HEL cells, 20 μM, Western blot): complete inhibition
concentration range in which inhibition of STAT5 phosphorylation was observed ([1]; HEL cells, tested at 2-30 μM, 1 hour): 10 to 20 µM
reduced permeability (compared to 11) ([2]; PAMPA): ~2 fold
inhibition of STAT-5 phosphorylation ([4]; 20 μM, Western blot): complete inhibition
concentration range in which inhibition of STAT5 phosphorylation was observed ([4]; tested at 2-30 μM): 10 to 20 µM

improved binding affinity compared to 12 (JAK2 JH2 WT; WT JAK2 JH2): 2 fold
Compound: CNC(=O)c1ccc(Nc2nc(N)n(C(=O)Nc3ccc(-c4cc(OCc5ccccc5)cc(C(=O)O)c4)cc3)n2)cc1 [Compound 14, 4’-(5-amino-3-((4-(methylcarbamoyl)phenyl)amino)-1H-1,2,4-triazole-1-carboxamido)-5-(benzyloxy)-[1,1’-biphenyl]-3-carboxylic acid]
concentration up to which no inhibition of STAT5 phosphorylation was observed ([1]; HEL cells, Western blot): > 30 µM

IC50 ([1]; Homo sapiens, HEL, read-out: IC50 (inhibition of STAT-5 phosphorylation)): 1000 to 5000 nM
Compound: Nc1nc(Nc2ccc(S(N)(=O)=O)cc2)nn1C(=O)c1c(F)cccc1F [Compound 1, JNJ7706621, reference compound]

Compound: COC(=O)c1cccc(-c2ccc(NC(=O)n3nc(Nc4ccc(S(N)(=O)=O)cc4)nc3N)cc2)c1 [Compound 8, Methyl 4’-(5-amino-3-((4-sulfamoylphenyl)amino)-1H-1,2,4-triazole-1-carboxamido)-[1,1’-biphenyl]-3-carboxylate]
loss in binding affinity compared to 7 (JAK2 JH2 WT; JAK2 JH2): about 3 orders of magnitude
PAMPA permeability, in words [2]: essentially impermeable

Compound: Nc1nc(Nc2ccc(S(N)(=O)=O)cc2)nn1C(=O)Nc1ccc(-c2ccccc2)cc1 [Compound 9, N-([1,1’-biphenyl]-4-yl)-5-amino-3-((4-sulfamoylphenyl)amino)-1H-1,2,4-triazole-1-carboxamide]
loss in binding affinity compared to 7 (JAK2 JH2 WT; JAK2 JH2): about 3 orders of magnitude
PAMPA permeability, in words [2]: essentially impermeable

Compound: Cn1c(=O)c2[nH]cnc2n(C)c1=O.O [theophylline, reference compound]
Papp at 18 h ([2]; PAMPA): 0.27 to 0.33 ×10⁻⁶ cm/s

Compound: O=C(N[C@H](CO)[C@H](O)c1ccc([N+](=O)[O-])cc1)C(Cl)Cl [chloramphenicol, reference compound]
Papp at 18 h ([2]; PAMPA): 4.36 to 4.99 ×10⁻⁶ cm/s
